Patent US10329286B2, “FXR (NR1H4) modulating compounds” (Gilead Sciences, Inc., priority 2016, dated 2019)
Read-outs that look alike come from different tables or passages of the source.

How the values were obtained:
[1] = molecular target: FXR ligand binding domain (Homo sapiens (Human), UniProt Q96RI1); assay: Mammalian one hybrid (M1H) Gal4 reporter gene assay in HEK293 cells; type: cell-based
Experimental: Determination of a ligand mediated Gal4 promoter driven transactivation to quantify ligand binding mediated activation of FXR was performed as follows.
The cDNA part encoding the FXR ligand binding domain was cloned into vector pCMV-BD (Stratagene) as a fusion to the yeast GAL4 DNA binding domain under the control of the CMV promoter. […] The plasmid pFR-Luc (Stratagene) was used as the reporter plasmid, containing a synthetic promoter with five tandem repeats of the yeast GAL4 binding sites, driving the expression of the Photinus pyralis (American firefly) luciferase gene as the reporter gene. In order to improve experimental accuracy the plasmid pRL-CMV (Promega) was cotransfected. pRL-CMV contains the constitutive CMV promoter, controlling the expression of the Renilla reniformis luciferase. All Gal4 reporter gene assays were done in HEK293 cells (obtained from DSMZ, Braunschweig, Germany) grown in MEM with L-Glutamine and Earle's BSS supplemented with 10% fetal bovine serum, 0.1 mM nonessential amino acids, 1 mM sodium pyruvate, and 100 units Penicilin/[…] per mL at 37° C. in 5% CO2. Medium and supplements were obtained from Invitrogen. For the assay, […] cells were plated per well in 96 well plates in 100 μL per well MEM without Phenol Red and L-Glutamine and with Earle's BSS supplemented with 10% charcoal/dextran treated FBS (HyClone, South Logan, Utah), 0.1 mM nonessential amino acids, 2 mM glutamine, 1 mM sodium pyruvate, and 100 units Penicilin/[…] per mL, incubated at 37° C. in 5% CO2. The following day the cells were >90% confluence. […] MEM with the same composition as used for plating cells was added 2-4 h after addition of transfection mixture. Then compound stocks, prediluted in MEM were added (final vehicle concentration not exceeding 0.1%). […] All experiments were done in triplicates.

[2] = molecular target: human FXR alpha ligand binding domain (Homo sapiens (Human), UniProt Q96RI1); assay: FRET activity assay (LANCE; ligand mediated FXR-LBD / SRC-1 cofactor peptide interaction); type: biochemical
Experimental: Determination of a ligand mediated cofactor peptide interaction to quantify ligand binding to the nuclear receptor FXR was performed as follows.
Preparation of human FXR alpha ligand binding domain: The human FXRalpha LBD was expressed in E. coli strain BL21(DE3) as an N-terminally GST tagged fusion protein. The DNA encoding the FXR ligand binding domain was cloned into vector pDEST15 (Invitrogen). Expression was under control of an IPTG inducible T7 promoter. The amino acid boundaries of the ligand binding domain were amino acids 187-472 of Database entry NM_005123 (RefSeq).
Expression and purification of the FXR-LBD: An overnight preculture of a transformed E. coli strain was diluted 1:20 in LB-Ampicillin medium and grown at 30° C. to an optical density of OD600=0.4-0.6. Gene expression was then induced by addition of 0.5 mM IPTG. Cells were incubated an additional 6 h at 30° C., 180 rpm. Cells were collected by centrifugation (7000×g, 7 min, rt). Per liter of original cell culture, cells were resuspended in 10 mL lysis buffer (50 mM Glucose, 50 mM Tris pH 7.9, 1 mM EDTA and 4 mg/mL lysozyme) and left on ice for 30 min. Cells were then subjected to sonication and cell debris removed via centrifugation (22000×g, 30 min, 4° C.). Per 10 mL of supernatant 0.5 mL prewashed Glutathione 4B sepharose slurry (Qiagen) was added and the suspension kept slowly rotating for 1 h at 4° C. Glutathione 4B sepharose beads were pelleted by centrifugation (2000×g, 15 sec, 4° C.) and washed twice in wash buffer (25 mM Tris, 50 mM KCl, 4 mM MgCl2 and 1M NaCl). The pellet was resuspended in 3 mL elution buffer per liter of original culture (elution buffer: 20 mM Tris, 60 mM KCl, 5 mM MgCl2 and 80 mM glutathione added immediately prior to use as powder). The suspension was left rotating for 15 min at 4° C., the beads pelleted and eluted again with half the volume of elution buffer than the first time. The eluates were pooled and dialysed overnight in 20 mM Hepes buffer (pH 7.5) containing 60 mM KCl, 5 mM MgCl2 as well as 1 mM dithiothreitol and 10% (v/v) glycerol. The protein was analysed by SDS-Page.
The method measures the ability of putative ligands to modulate the interaction between the purified bacterial expressed FXR ligand binding domain (LBD) and a synthetic biotinylated peptide based on residues 676-700 of SRC-1 (LCD2, 676-700). The sequence of the peptide used was B-[…]-COOH (SEQ ID NO: 1) where the N-terminus was biotinylated (B). The ligand binding domain (LBD) of FXR was expressed as fusion protein with GST in BL-21 cells using the vector pDEST15. Cells were lysed by sonication, and the fusion proteins purified over glutathione sepharose (Pharmacia) according to the manufacturers instructions. For screening of compounds for their influence on the FXR-peptide interaction, the Perkin Elmer LANCE technology was applied. This method relies on the binding dependent energy transfer from a donor to an acceptor fluorophor attached to the binding partner of interest. For ease of handling and reduction of background from compound fluorescence LANCE technology makes use of generic fluorophore labels and time resolved detection.
Assays were done in a final volume of 25 μL in a 384 well plate, in a Tris-based buffer (20 mM Tris-HCl pH 7.5; 60 mM KCl, 5 mM MgCl2; 35 ng/μL BSA), containing 20-60 ng/well recombinantly expressed FXR-LBD fused to GST, 200-600 nM N-terminally biotinylated peptide, representing SRC1 aminoacids 676-700, 200 ng/well Streptavidin-x1APC conjugate (Prozyme) and 6-10 ng/well Eu W1024-antiGST (Perkin Elmer). DMSO content of the samples was kept at 1%. After generation of the assay mix and diluting the potentially FXR modulating ligands, the assay was equilibrated for 1 h in the dark at rt in FIA-plates black 384 well (Greiner). The LANCE signal was detected by a Perkin Elmer VICTOR2VTM Multilabel Counter. The results were visualized by plotting the ratio between the emitted light at 665 and 615 nm. […]

[3] = Gal4-FXR-LBD luciferase reporter, HEK293 cells, 16 h, read-out: M1H EC50
[4] = GST-FXR-LBD, biotinylated SRC-1 peptide 676-700, read-out: FRET EC50

Sequence of human FXR alpha ligand binding domain (Q96RI1 other isoform, or with tags, fused parts or gaps): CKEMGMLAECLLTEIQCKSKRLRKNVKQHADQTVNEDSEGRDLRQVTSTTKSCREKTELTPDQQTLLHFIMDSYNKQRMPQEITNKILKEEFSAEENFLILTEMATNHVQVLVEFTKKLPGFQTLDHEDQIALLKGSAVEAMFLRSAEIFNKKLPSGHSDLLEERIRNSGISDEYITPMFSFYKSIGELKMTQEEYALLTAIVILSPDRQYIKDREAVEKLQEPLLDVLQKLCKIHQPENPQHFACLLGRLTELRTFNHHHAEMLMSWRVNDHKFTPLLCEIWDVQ
Sequence of FXR ligand binding domain (Q96RI1 other isoform, or with tags, fused parts or gaps): as above

Row | EC50 [1] | EC50 [2] | Compound | EC50 [1, 3] | EC50 [2, 4]
1 |  |  | O=C(O)c1ccc(N2CC(O)(c3ccc(OCc4c(-c5c(Cl)cccc5Cl)noc4C4CC4)cc3Cl)C2)nc1C(F)(F)F [Example 6, 6-(3-(2-chloro-4-((5-cyclopropyl-3-(2,6-dichlorophenyl)isoxazol-4-yl)methoxy)phenyl)-3-hydroxyazetidin-1-yl)-2-(trifluoromethyl)nicotinic acid] | 56 nM | 3.1 nM
2 |  |  | COc1cccc(OC)c1-c1noc(C2CC2)c1COc1ccc(C2(O)CN(c3ncc(C(=O)O)cc3F)C2)c(Cl)c1 [Example 8, 6-(3-(2-chloro-4-((5-cyclopropyl-3-(2,6-dimethoxyphenyl)isoxazol-4-yl)methoxy)phenyl)-3-hydroxyazetidin-1-yl)-5-fluoronicotinic acid] | 593 nM | 15 nM
3 |  |  | O=C(O)c1cnc(N2CC(O)(c3ccc(OCc4c(C5CC5)cnn4-c4c(Cl)cccc4Cl)cc3Cl)C2)c(F)c1 [Example 11, 6-(3-(2-chloro-4-((4-cyclopropyl-1-(2,6-dichlorophenyl)-1H-pyrazol-5-yl)methoxy)phenyl)-3-hydroxyazetidin-1-yl)-5-fluoronicotinic acid] | 4.9 nM | 3.8 nM
4 |  |  | O=C(O)c1cnc(N2CC(O)(c3ccc(OCc4c(-c5c(Cl)cccc5Cl)noc4C4CC4)cc3Cl)C2)c(F)c1 [Example 5, 6-(3-(2-chloro-4-((5-cyclopropyl-3-(2,6-dichlorophenyl)isoxazol-4-yl)methoxy)phenyl)-3-hydroxyazetidin-1-yl)-5-fluoronicotinic acid] | 4.5 nM | 4.8 nM
5 |  |  | O=C(O)c1cnc(N2CC(O)(c3ccc(OCc4c(-c5c(Cl)cncc5Cl)noc4C4CC4)cc3Cl)C2)c(F)c1 [Example 10, 6-(3-(2-chloro-4-((5-cyclopropyl-3-(3,5-dichloropyridin-4-yl)isoxazol-4-yl)methoxy)phenyl)-3-hydroxyazetidin-1-yl)-5-fluoronicotinic acid] | 6.4 nM | 3.4 nM
6 |  |  | O=C(O)c1cc(N2CC(O)(c3ccc(OCc4c(-c5c(Cl)cccc5Cl)noc4C4CC4)cc3Cl)C2)nc(C(F)(F)F)c1 [Comparative Compound 3, reference compound] | 131 nM | 47 nM
7 | 774 nM | 14 nM | O=C(O)c1ccnc(N2CC(O)(c3ccc(OCc4c(-c5c(Cl)cccc5Cl)noc4C4CC4)cc3Cl)C2)c1 [Comparative Compound 1, reference compound] |  | 
8 |  |  | Cc1cc(C(=O)O)cnc1N1CC(O)(c2ccc(OCc3c(-c4c(Cl)cccc4Cl)noc3C3CC3)cc2Cl)C1 [Example 4, 6-(3-(2-chloro-4-((5-cyclopropyl-3-(2,6-dichlorophenyl)isoxazol-4-yl)methoxy)phenyl)-3-hydroxyazetidin-1-yl)-5-methylnicotinic acid] | 5.1 nM | 3.9 nM
9 |  |  | O=C(O)c1ccc(N2CC(O)(c3ccc(OCc4c(-c5c(Cl)cccc5Cl)noc4C4CC4)cc3Cl)C2)nc1 [Example 2, 6-(3-(2-chloro-4-((5-cyclopropyl-3-(2,6-dichlorophenyl)isoxazol-4-yl)methoxy)phenyl)-3-hydroxyazetidin-1-yl)nicotinic acid] | 7.1 nM | 2.6 nM
10 |  |  | Cc1nc(N2CC(O)(c3ccc(OCc4c(-c5c(Cl)cccc5Cl)noc4C4CC4)cc3Cl)C2)ccc1C(=O)O [Example 3, 6-(3-(2-chloro-4-((5-cyclopropyl-3-(2,6-dichlorophenyl)isoxazol-4-yl)methoxy)phenyl)-3-hydroxyazetidin-1-yl)-2-methylnicotinic acid] | 6.9 nM | 4.4 nM
11 |  |  | O=C(O)c1ccnc(N2CC(O)(c3ccc(OCc4c(-c5c(Cl)cncc5Cl)noc4C4CC4)cc3Cl)C2)c1 [Comparative Compound 2, reference compound] | 744 nM | 48 nM
12 |  |  | O=C(O)c1ccc(N2CC(O)(c3ccc(OCc4c(-c5c(Cl)cncc5Cl)noc4C4CC4)cc3Cl)C2)nc1 [Example 1, 6-(3-(2-chloro-4-((5-cyclopropyl-3-(3,5-dichloropyridin-4-yl)isoxazol-4-yl)methoxy)phenyl)-3-hydroxyazetidin-1-yl)nicotinic acid] | 95 nM | 6.1 nM
13 |  |  | Cc1cc(N2CC(O)(c3ccc(OCc4c(-c5c(Cl)cccc5Cl)noc4C4CC4)cc3Cl)C2)ncc1C(=O)O [Example 7, 6-(3-(2-chloro-4-((5-cyclopropyl-3-(2,6-dichlorophenyl)isoxazol-4-yl)methoxy)phenyl)-3-hydroxyazetidin-1-yl)-4-methylnicotinic acid] | 6.7 nM | 8.5 nM
14 |  |  | Cc1cc(Cl)c(-c2noc(C3CC3)c2COc2ccc(C3(O)CN(c4ncc(C(=O)O)cc4F)C3)c(Cl)c2)c(Cl)c1 [Example 9, 6-(3-(2-chloro-4-((5-cyclopropyl-3-(2,6-dichloro-4-methylphenyl)isoxazol-4-yl)methoxy)phenyl)-3-hydroxyazetidin-1-yl)-5-fluoronicotinic acid] | 26 nM | 57 nM
